We go through ten compounds from publication PMC2774619 (Current Chemical Genomics, 2008).

Counter-ions that a name gives are not always drawn. Peptide text beside a SMILES is read from it.

Test [1] concerns the target murine M1 muscarinic acetylcholine receptor (Rattus norvegicus, UniProt P08482). Kind of test: cell-based. Conditions: IC50, IP-One Assay.
The target in test [2] is free fatty acid receptor 1 (FFAR1) (Homo sapiens, UniProt O14842).
A further test concerns the target NPS receptor. Conditions: read-out: Kd value of NPS receptor binding; reported previously; cited from earlier work.
For test [3], the target named is neuropeptide S (NPS) receptor (Homo sapiens, UniProt Q6W5P4). As to conditions: NPSR.
neuropeptide S (NPS) receptor, sequence (Q6W5P4 whole entry): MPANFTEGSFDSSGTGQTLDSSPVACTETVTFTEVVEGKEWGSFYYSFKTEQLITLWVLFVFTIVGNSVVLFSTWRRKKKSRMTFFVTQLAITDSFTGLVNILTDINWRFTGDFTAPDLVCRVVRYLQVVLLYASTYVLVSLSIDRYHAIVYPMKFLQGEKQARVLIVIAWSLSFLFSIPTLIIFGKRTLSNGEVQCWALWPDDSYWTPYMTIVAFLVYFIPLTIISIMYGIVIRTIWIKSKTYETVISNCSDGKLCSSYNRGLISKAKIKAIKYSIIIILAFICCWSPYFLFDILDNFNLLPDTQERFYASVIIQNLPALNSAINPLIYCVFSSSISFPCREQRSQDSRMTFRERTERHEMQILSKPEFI
Test [4] concerns the target NPS receptor (Homo sapiens) (UniProt Q6W5P4). Conditions: cited from earlier work.

murine M1 muscarinic acetylcholine receptor, sequence (P08482 whole entry): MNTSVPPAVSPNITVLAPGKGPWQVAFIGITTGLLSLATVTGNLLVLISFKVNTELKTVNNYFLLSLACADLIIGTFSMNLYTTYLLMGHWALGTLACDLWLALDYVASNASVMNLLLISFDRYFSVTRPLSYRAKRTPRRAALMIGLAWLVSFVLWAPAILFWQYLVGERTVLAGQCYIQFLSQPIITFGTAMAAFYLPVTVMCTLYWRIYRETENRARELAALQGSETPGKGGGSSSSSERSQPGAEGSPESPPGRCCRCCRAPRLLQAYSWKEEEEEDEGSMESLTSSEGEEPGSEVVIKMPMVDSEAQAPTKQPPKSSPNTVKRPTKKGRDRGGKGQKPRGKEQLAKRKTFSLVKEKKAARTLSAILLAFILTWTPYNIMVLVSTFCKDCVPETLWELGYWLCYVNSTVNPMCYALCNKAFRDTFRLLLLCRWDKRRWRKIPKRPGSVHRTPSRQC
Neuropeptide S, sequence (P0C0P6 68-89): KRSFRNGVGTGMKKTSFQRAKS
NPS receptor (Homo sapiens), sequence (Q6W5P4 whole entry): as the sequence (Q6W5P4 whole entry) above
free fatty acid receptor 1 (FFAR1), sequence (O14842 whole entry, species assumed): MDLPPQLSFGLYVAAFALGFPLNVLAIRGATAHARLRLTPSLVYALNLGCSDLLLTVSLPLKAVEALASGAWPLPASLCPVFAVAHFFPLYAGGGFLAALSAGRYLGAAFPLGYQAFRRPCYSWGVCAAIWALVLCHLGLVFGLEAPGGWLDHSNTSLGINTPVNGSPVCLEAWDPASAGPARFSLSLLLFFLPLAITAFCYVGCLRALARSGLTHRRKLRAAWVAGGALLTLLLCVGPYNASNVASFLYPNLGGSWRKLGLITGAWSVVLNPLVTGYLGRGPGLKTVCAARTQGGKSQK

What is called IC50 is the concentration at which inhibition is half-maximal. Higher therefore signals a need for much substance. `C[N+]1(C)[C@@H]2CC[C@H]1C[C@@H](OC(=O)C(CO)c1ccccc1)C2` (mixture of isomers) [Atropine methyl bromide] showed an IC50 in test [1] of 3 nM.
`C[N+]1(C)[C@@H]2CC[C@H]1C[C@@H](OC(=O)C(CO)c1ccccc1)C2` (mixture of isomers) [Atropine methyl nitrate] registered a concentration for half-maximal inhibition (IC50) in test [1] of 1 nM. This IC50 lies about 3-fold lower than the previous one.
The same measure, in the same setting: the result for `CN1[C@@H]2CC[C@H]1C[C@@H](OC(c1ccccc1)c1ccccc1N)C2` (some centres unmarked) [Aminobenztropine] reads 3 nM.
For `O=C(O)CCc1ccc(NCc2cccc(Oc3ccccc3)c2)cc1` [GW9508], the “Ratio b/a (EC50 IP-One / EC50 calcium)” value in test [2] was 1.1.
Take `CC[N+](CC)(CC)CCOc1ccc(/C=C/c2ccccc2)cc1` [MG 624]: the 50% inhibitory concentration (IC50) in test [1] was found to be 398 nM.
By Kd is commonly meant a measure of binding affinity in units of concentration. Turning to `CSCC[C@H](NC(=O)CNC(=O)[C@@H](NC(=O)CNC(=O)[C@@H](NC(=O)CNC(=O)[C@H](CC(N)=O)NC(=O)[C@H](CCCNC(=N)N)NC(=O)[C@H](Cc1ccccc1)NC(=O)[C@@H](N)CO)C(C)C)[C@@H](C)O)C(=O)N[C@@H](CCCCN)C(=O)N[C@@H](CCCCN)C(=O)N[C@H](C(=O)N[C@@H](CO)C(=O)N[C@@H](Cc1ccccc1)C(=O)N[C@@H](CCC(N)=O)C(=O)N[C@@H](CCCNC(=N)N)C(=O)N[C@@H](C)C(=O)N[C@@H](CCCCN)C(=O)N[C@@H](CO)C(=O)O)[C@@H](C)O` [NPS, neuropeptide S] (H-SFRNGVGTGMKKTSFQRAKS-OH), at NPS receptor, the dissociation constant Kd is 0.33 nM. For the same compound, the “Ratio b/a (EC50 IP-One / EC50 calcium)” value in test [3] was found to be 1.9.
In turn, `CC(=O)O[C@H]1C[C@@H]2CC[C@@H]3[C@H](CC[C@@]4(C)[C@H]3C[C@H]([N+]3(C)CCCCC3)[C@@H]4OC(C)=O)[C@@]2(C)C[C@@H]1[N+]1(C)CCCCC1` [Pancuronium bromide] had a concentration for half-maximal inhibition (IC50) in test [1] of 12600 nM.
On the same count and under the same terms, the result for `CC(C)[N+](C)(CCOC(=O)C1c2ccccc2Oc2ccccc21)C(C)C` [Propantheline bromide] reads 1 nM; that for `Cc1scc2c1N(C(=O)CN1CCN(C)CC1)c1ccccc1NC2=O` [Telenzepine dihydrochloride], 25 nM.
Consider Neuropeptide S (from UniProt P0C0P6), for which the Kd in test [4] was 0.33 nM.
